{
  "source": "patent US20040013710A1",
  "about": "“Hydrolyzable tannin extracts from plants effective at inhibiting bacterial adherence to surfaces” (priority 2003, published 2004)",
  "origin": "cited, not measured here",
  "system": "type 1 E. coli",
  "data": [
    {"smiles": "O=C(CO)[C@@H](O)[C@H](O)[C@H](O)CO", "note": "[fructose]", "values": [
      {"measurement": "inhibition of Type I adherence", "value": "inhibited"}
    ]}
  ]
}
